Laboratory results taken from US8575142B2, “Agent for improving insulin resistance” (Morinaga Milk Industry Co., Ltd., priority 2005, dated 2013).
“And” between values parts separate entries of the source, which are not always exact repeats. Equal values may be shown once.

Assays:
Format in all cases: in vivo
TNF-α = TNF-α production by epididymal fat tissues collected from treated insulin-resistant AKR mice (ELISA); conditions: for TNF-α: culture supernatant of epididymal fat tissue after 1 hour culture, 60th day of oral administration, 25 μg/kg once a day; for Effect on production of TNF-α as compared with negative sample group: fat tissues, 60th day, 25 μg/kg oral once a day, Tukey-Kramer's test
Method: (§1) The present example was performed by using AKR mice to which insulin resistance was induced by feeding with a high-fat diet, to evaluate the effects of the agent for amelioration insulin resistance of the present invention on production of TNF-α and MCP-1 from respective cells of fat tissues.
(§2) In Example 2, the same test samples and negative sample as those prepared in Example 1 were used.
(§3) After that, the mice were divided into groups of 8 mice each. Each of the groups of mice was orally administered with 1 ml per 40 g of body weight (25 μg/kg of body weight) of a test sample or the negative sample once a day using a sonde. […] After 1 hour of the culture, culture supernatants were collected, and concentrations of TNF-α and MCP-1 in the culture supernatants were measured by ELISA (Biosource).

[1] = system: AKR mice to which insulin resistance was induced by feeding with a high-fat diet; assay: Insulin tolerance test in AKR mice with high-fat-diet-induced insulin resistance; conditions: 45th day of oral administration, 25 μg/kg once a day; 4 hours fasted; 0.75 U/kg human insulin intraperitoneally; up to 60 minutes; compared with negative sample
Method: The present example was performed by using AKR mice to which insulin resistance was induced by feeding with a high-fat diet, to confirm an enhancing effect of the agent for improving insulin resistance of the present invention on insulin sensitivity by performing an insulin tolerance test.
In Example 3, the same test samples and negative sample as those prepared in Examples 1 and 2 were used.
After that, the mice were divided into groups of 8 mice each. Each of the groups of mice was orally administered with 1 ml per 40 g of body weight (25 μg/kg of body weight) of a test sample or the negative sample once a day using a sonde. […] The insulin tolerance test in the present example was performed in such a manner that: the mice were fasted for 4 hours, and were then intraperitoneally administered with 0.75 U/kg of body weight of a human insulin (Eli Lily and Company); and changes with time in blood glucose level were measured from the initiation of the administration of insulin to after 60 minutes later.

MCP-1 = MCP-1 production by epididymal fat tissues collected from treated insulin-resistant AKR mice (ELISA); conditions: for MCP-1: culture supernatant of epididymal fat tissue after 1 hour culture, 60th day of oral administration, 25 μg/kg once a day; for Effect on production of MCP-1 as compared with negative sample group: fat tissues, 60th day, 25 μg/kg oral once a day, Tukey-Kramer's test
Method: as §1, §2, §3

[2] = system: AKR mice to which insulin resistance was induced by feeding with a high-fat diet; assay: Level of free fatty acid in serum of AKR mice with high-fat-diet-induced insulin resistance; conditions: 60th day of oral administration; for Free fatty acid: mouse serum, under fasting, 25 μg/kg of body weight once a day; for Test sample/negative sample (free fatty acid level in serum): relative to negative sample group, 25 μg/kg once a day
Method: Compound 3 (4-methylcholest-7-en-3-ol), Compound 4 (4-methylergost-7-en-3-ol), and Compound 5 (4-methylstigmast-7-en-3-ol) which were produced in Preparation Example 1 were each dissolved in DMSO and adjusted with distilled water to each have a concentration of 1 μg/ml, to thereby prepare Test Samples 1, 2, and 3. In this case, DMSO was adjusted to have a final concentration of 0.2%.
After that, the mice were divided into groups of 8 mice each. Each of the groups of mice were orally administered with 1 ml per 40 g of body weight (25 μg/kg of body weight) of a test sample or the negative sample once a day using a sonde.

SMILES	TNF-α (TNF-α) [pg/mL]	Effect on production of TNF-α as compared with negative sample group (TNF-α)	Change in blood glucose level after administration of insulin (FIG. 1) [1]	MCP-1 (MCP-1) [pg/mL]	Effect on production of MCP-1 as compared with negative sample group (MCP-1)	Free fatty acid [2] [mEp/l]	Test sample/negative sample (free fatty acid level in serum) [2]
CC(C)CCCC(C)C1CCC2C3=CCC4C(C)C(O)CCC4(C)C3CCC21C (stereo not drawn) [Test Sample 1, 4-methylcholest-7-en-3-ol]	33.73 ± 1.68	significant inhibitory effects	rapid reduction in blood glucose levels	100.86 ± 8.31	significant inhibitory effects	1.35 ± 0.23	86.4% and 84.5%
CCC(CCC(C)C1CCC2C3=CCC4C(C)C(O)CCC4(C)C3CCC21C)C(C)C (stereo not drawn) [Test Sample 3, 4-methylstigmast-7-en-3-ol]	29.80 ± 3.82	significant inhibitory effects	rapid reduction in blood glucose levels	87.80 ± 9.24	significant inhibitory effects	0.90 ± 0.15	60.8%
CC(C)C(C)CCC(C)C1CCC2C3=CCC4C(C)C(O)CCC4(C)C3CCC21C (stereo not drawn) [Test Sample 2, 4-methylergost-7-en-3-ol]	32.71 ± 1.70	significant inhibitory effects	rapid reduction in blood glucose levels	95.56 ± 10.56	significant inhibitory effects	1.21 ± 0.22	81.6%
